Experiment [1] relates to mechanical hypersensitivity induced by L5/L6 spinal nerve ligation in rats. Description: Spinal nerve ligation (SNL) model of neuropathic pain. The class given is in vivo, rat. Conditions: intravenous route. Here is the method:
The SNL model (Kim and Chung 1992) was used to induce chronic neuropathic pain. The rats were anesthetized with isoflurane, the left L5 transverse process was removed, and the L5 and L6 spinal nerves were tightly ligated with 6-0 silk suture. The wound was then closed with internal sutures and external staples. Fourteen days following SNL, baseline, post-injury and post-treatment values for non-noxious mechanical sensitivity were evaluated using 8 Semmes-Weinstein filaments (Stoelting, Wood Dale, Ill., USA) with varying stiffness (0.4, 0.7, 1.2, 2.0, 3.6, 5.5, 8.5, and 15 g) according to the up-down method (Chaplan et al. 1994). Animals were placed on a perforated metallic platform and allowed to acclimate to their surroundings for a minimum of 30 minutes before testing. The mean and standard error of the mean (SEM) were determined for each paw in each treatment group. Since this stimulus is normally not considered painful, significant injury-induced increases in responsiveness in this test are interpreted as a measure of mechanical allodynia. […] Compound (2) was administered by the intravenous route. FIG. 10 summarizes the results of these experiments.

In experiment [2] the test system is acetic acid-induced writhing in mice. Put plainly: Acetic acid-induced writhing assay in mice. In kind it is in vivo, ICR mice. The settings on record: mice. As to the method:
12: 525-562; Ramabadran and Bansinath (1986) Pharm. Res. 3: 263-270]. Intraperitoneal administration of dilute acetic acid solution causes a writhing behavior in mice. A writhe is defined as a contraction of the abdominal muscles accompanied by an extension of the forelimbs and elongation of the body. The number of writhes observed in the presence and absence of test compounds is counted to determine the analgesic activity of the compounds.
Each day a writhing assay was performed, a vehicle control group of mice (n=6-8) that were treated identically to the test group (except that test compound was omitted from the injection dose) was always included and the average total number of writhes in this group used as the absolute reference point defining 0% decrease in pain perception for all other mice receiving a test compound on that day. Specifically, the total number of writhes of each mouse receiving the test compound was converted to % decrease in pain perception according to the following equation:
[formula] Where Wv is the mean number of writhes in vehicle-treated group and Wc is the number of writhes in compound-treated mouse.
Male ICR mice, 23-37 grams in weight, were weighed and placed in individual observation chambers (usually a 4000 ml glass beaker) with a fine layer of SANI-CHIPS rodent bedding at the bottom. […] After administration of the compound or vehicle control, mice were returned to their individual observation chambers awaiting the intraperitoneal administration of acetic acid solution. […] and acetic acid injection, a dose corresponding to 10 ml/kg of a 0.6% (v/v) acetic acid solution was then injected into the right lower quadrant of the abdomen. Immediately after the injection, the mouse was returned to its observation chamber and the recording of the number of writhes begun immediately. The number of writhes was counted over a 15-min period starting from the time of acetic acid injection, the data being collected over three separate 5 minute time periods (0-5 min, 5-10 min, and 10-15 min).
The data were reported as ED50, and Hill coefficient. […] The Hill coefficient is expressed as the arithmetic mean±sem calculated from the values obtained from the animals.
For dose-response analysis, raw data were converted to % maximum possible effect (% MPE) using the formula: % MPE=((test score−vehicle-treated score)/(0−vehicle-treated score))*100. Raw data were analyzed using a one-way ANOVA followed by Dunnett's post-tests. […] Compounds were administered by the intravenous route.
(In general: In writhing tests, fewer writhes than in controls are read as antinociception.)

The subject of experiment [3] is pruritus induced by compound 48/80 in mice. Put plainly: Pruritus model in mice, compound 48/80-induced scratching. Conditions: inhibition of scratching. In kind it is in vivo, Swiss Webster mice. Here is the method: (§1) Groups of 10 (and in one case, 11) male Swiss Webster mice (25-30 g) were used. Each animal was weighed and allowed to acclimate for at least one hour in individual, rectangular observation boxes. The tails of mice were immersed for 30 seconds in warm water to dilate tail veins and the animals then received an intravenous injection of either vehicle (saline) or compound (2) (0.01, 0.03, 0.10 and 0.30 mg of free base/kg). Fifteen minutes later, each mouse was given either GNTI dihydrochloride (Tocris) (0.30 mg/kg; 0.25 ml/25 g) or compound 48/80 (Sigma) (50 μg in 0.10 ml saline) subcutaneously behind the neck. The animals were then observed in pairs (occasionally in threes) and the number of hind leg scratching movements directed at the neck was counted for 30 minutes. […]

Experiment [4] concerns capsaicin-induced ocular pain. Put plainly: Capsaicin-induced ocular pain, palpebral opening in rabbits. In kind it is in vivo, albino New Zealand strain rabbits. The settings on record: 10-30 min. post capsaicin.
The test system of experiment [5] is pancreatitis-induced abdominal hypersensitivity in rats. Description: Rat pancreatitis model (dibutylin dichloride), abdominal hypersensitivity. The settings on record: intraperitoneal route. In kind it is in vivo. Here is the method:
Chronic pancreatic inflammation was induced in rats by intravenous administration of dibutylin dichloride (DBTC, Aldrich Milwaukee, Wis.) dissolved in 100% ethanol at a dose of 8 mg/kg under isofluorane anesthesia (2-3 liters/min, 4%/vol until anesthetized, then 2.5%/vol throughout the procedure. Control animals received the same volume of vehicle (100% ethanol) alone. Pancreatitis pain was assessed by determination of abdominal sensitivity to probing the abdomen of rats with a calibrated von Frey filament (4 g). Rats were allowed to acclimate in suspended wire-mesh cages for 30 min before testing. A response was indicated by the sharp withdrawal of the abdomen, licking of abdominal area, or whole body withdrawal. […] The mean occurrence of withdrawal events in each trial is expressed as the number of responses to 10 applications. Rats without inflammation of the pancreas typically display withdrawal frequencies to probing with von Frey filament of 0-1. The animals were allowed to recover for 6 days after DBTC administration prior to any pharmacological manipulations.
The number of positive responses, following abdominal probing (out of a possible 10), were recorded at each time point. […] Raw data were analyzed using a two-way repeated measures ANOVA followed by Bonferroni post-tests. […]

The subject of experiment [6] is pruritus induced by GNTI in mice. Put plainly: Pruritus model in mice, GNTI-induced scratching. The class given is in vivo, Swiss Webster mice. Conditions: inhibition of scratching. Here is the method: as §1

Molecules are shown by their SMILES.

Take `CC(C)C[C@@H](NC(=O)[C@@H](Cc1ccccc1)NC(=O)[C@H](N)Cc1ccccc1)C(=O)N[C@H](CCCCN)C(=O)N1CCC(N)(C(=O)O)CC1` [Compound (2), D-Phe-D-Phe-D-Leu-D-Lys-[ω(4-aminopiperidine-4-carboxylic acid)]-OH]: the “ED50, attenuation of mechanical hypersensitivity (SNL model)” value in experiment [1] was 0.38 mg/kg. The “dose response in the acetic acid-induced writhing model” value in experiment [2] (intravenously, 0.01 mg/kg to 0.3 mg/kg) is listed as “linear dose response relationship”. Also, the “ED50 (mg/kg, iv, 15 min post-dose)” value in experiment [2] (iv, 15 min post-dose) is 0.07 mg/kg. Further, in experiment [2] (iv, 180 min post-ED90), the “% MPE (180 min post-ED90)” value amounted to 77 ± 5% MPE. Besides, in experiment [2] (iv, 240 min post-ED90), the “% MPE (240 min post-ED90)” value amounted to 81 ± 4% MPE. Moreover, the “% MPE (300 min post-ED90)” value in experiment [2] (iv, 300 min post-ED90) is reported as 84 ± 4% MPE. In addition, the “Compound 48/80 Model ED50 (mg/kg, iv, 15 min post-dose)” value in experiment [3] is reported as 0.08 (0.04-0.2) mg/kg. The “Mean palpebral opening (% Control)” value in experiment [4] (Table VII, 10 mg/ml, five animals) is on record as 82.7 % Control; in experiment [4] (Table VIII, 1 mg/ml, ten animals) it was 60.5 % Control; in experiment [4] (Table VIII, 10 mg/ml, ten animals) it was 56.6 % Control; in experiment [4] (Table VIII, 25 mg/ml, ten animals), 75.5 % Control; in experiment [4] (Table VIII, 50 mg/ml, ten animals) it was 87.5 % Control. Moreover, in experiment [5], the “ED50, attenuation of abdominal hypersensitivity (pancreatitis model)” value was 0.03 mg/kg. In addition, the “GNTI Model ED50 (mg/kg, iv, 15 min post-dose)” value in experiment [6] is 0.05 (0.02-0.1) mg/kg.

The values are drawn from patent US9359399B2, “Synthetic peptide amides” (Cara Therapeutics, Inc., priority 2006, dated 2016).
